In patent US20240368115A1, “REGULATOR CONTAINING TRICYCLIC DERIVATIVE, PREPARATION METHOD THEREFOR AND APPLICATION THEREOF” (SHUJING BIOPHARMA CO., LTD, priority 2021, published 2024):
Like-named read-outs stand apart in the source and are kept apart here.

Experiments:
D2S receptor = molecular target: T1, D2S receptor (Homo sapiens, UniProt P14416); assay: D2S receptor cAMP agonist test; assay type: cell-based; conditions: HEK293 cell strain stably expressing D2S receptor; for EC50: cAMP, forskolin 5×10^−7 M; for D2S Max Act %: positive control dopamine 1×10^−7 M
T1 construct: expressed in transfected cells
T1 sequence (P14416 1-414 isoform P14416-2): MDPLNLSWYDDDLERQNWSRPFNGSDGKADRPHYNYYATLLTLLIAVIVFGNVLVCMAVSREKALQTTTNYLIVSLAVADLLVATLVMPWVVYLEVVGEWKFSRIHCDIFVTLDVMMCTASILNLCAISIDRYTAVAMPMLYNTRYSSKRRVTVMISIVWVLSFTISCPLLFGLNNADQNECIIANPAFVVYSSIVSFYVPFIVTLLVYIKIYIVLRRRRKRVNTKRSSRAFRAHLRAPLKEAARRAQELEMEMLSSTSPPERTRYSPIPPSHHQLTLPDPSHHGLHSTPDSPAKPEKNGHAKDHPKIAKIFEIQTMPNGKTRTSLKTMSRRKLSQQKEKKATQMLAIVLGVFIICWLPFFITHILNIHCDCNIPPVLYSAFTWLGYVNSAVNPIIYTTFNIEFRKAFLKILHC
Excerpt: (§1) cAMP detection kit was purchased from Cisbio; an HEK293 cell strain stably expressing D2S receptor was constructed by Shanghai Shujing Biopharma Co., Ltd.; dopamine, forskolin, and IBMX were purchased from Sigma; ProxiPlate-384 well plates were purchased from PerkinElmer; HBSS was purchased from Thermo Fisher Scientific.
(§2) • (1) The cultured cells were digested with trypsin, and the cell suspension was washed with HBSS buffer after the digestion was terminated. The medium was removed by centrifugation at 200×g. The pellet was resuspended in an appropriate amount of experimental buffer, and 20 μL of cell suspension was counted using a cell counter and diluted to 0.6×10^6 cells/mL. • (2) 5 μL of cell suspension was added to a ProxiPlate-384 well plate (3×10^3 cells/well). • (3) Test compounds were serially diluted in an experimental buffer, and 5 μL of the mixed solution was transferred to the reaction plate with Bravo.

5-HT1A receptor = molecular target: T2, 5-HT1A receptor (Homo sapiens, UniProt P08908); assay: 5-HT1A receptor cAMP agonist test; assay type: cell-based; conditions: HEK293 cell strain stably expressing 5-HT1A receptor; for EC50: cAMP, forskolin 2.5×10^−7 M; for 5-HT1A Max Act %: positive control serotonin 10^−6 M
T2 construct: expressed in transfected cells
T2 sequence (P08908 1-422): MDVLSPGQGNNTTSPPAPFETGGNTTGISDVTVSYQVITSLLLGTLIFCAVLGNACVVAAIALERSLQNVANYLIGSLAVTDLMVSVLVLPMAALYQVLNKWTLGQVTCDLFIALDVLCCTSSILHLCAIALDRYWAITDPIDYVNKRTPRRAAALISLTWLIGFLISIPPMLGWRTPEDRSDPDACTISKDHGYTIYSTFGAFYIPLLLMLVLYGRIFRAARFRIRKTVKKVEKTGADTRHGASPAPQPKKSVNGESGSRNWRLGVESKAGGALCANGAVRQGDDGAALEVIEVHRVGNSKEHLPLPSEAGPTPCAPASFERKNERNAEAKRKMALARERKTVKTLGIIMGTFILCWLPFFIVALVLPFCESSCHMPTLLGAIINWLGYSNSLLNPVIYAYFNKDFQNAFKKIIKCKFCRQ
Excerpt: as §1, with “• cAMP” for “cAMP”, “5-HT1A” for “D2S”, “serotonin,” for “dopamine,”
as §2, with “0.4×10^6” for “0.6×10^6”, “(2×10^3” for “(3×10^3”

5-HT2A receptor = 5-HT2A receptor (Homo sapiens, UniProt P28223); assay: Calcium flux test for 5-HT2A receptor; assay type: cell-based; conditions: CHO cell strain stably expressing 5-HT2A receptor; for IC50: calcium flux, antagonism of serotonin; for 5-HT2A Max Inh %: positive control ketanserin 10^−7 M
5-HT2A receptor, sequence (P28223 whole entry): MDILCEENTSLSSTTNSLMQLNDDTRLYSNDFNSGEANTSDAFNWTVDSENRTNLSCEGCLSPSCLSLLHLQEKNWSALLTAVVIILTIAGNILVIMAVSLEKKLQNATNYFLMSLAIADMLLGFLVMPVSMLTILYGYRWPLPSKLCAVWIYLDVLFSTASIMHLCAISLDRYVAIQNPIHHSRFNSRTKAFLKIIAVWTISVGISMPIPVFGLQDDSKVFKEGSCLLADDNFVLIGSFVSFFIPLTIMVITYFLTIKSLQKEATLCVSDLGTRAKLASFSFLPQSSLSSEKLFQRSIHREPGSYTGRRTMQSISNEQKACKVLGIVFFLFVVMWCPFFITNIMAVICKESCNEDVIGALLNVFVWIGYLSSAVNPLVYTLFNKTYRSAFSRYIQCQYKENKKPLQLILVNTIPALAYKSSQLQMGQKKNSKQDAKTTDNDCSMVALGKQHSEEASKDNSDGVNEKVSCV
Experimental: • Fluo-4 calcium flux detection kit was purchased from Invitrogen; a CHO cell strain stably expressing 5-HT2A receptor was purchased from PerkinElmer; serotonin was purchased from Sigma; ketanserin was purchased from Targetmol; polylysine-coated 384-well plates and 384-well compound plates were purchased from Greiner Bio-One. Molecular Device FLIPR, Agilent Bravo liquid workstation, and Countstar BioTech cell counter.
• (1) The cryopreserved cells were rapidly thawed in a water bath at 37° C., and the cells were resuspended in a plating medium. The cryopreservation solution was removed by centrifugation at 200×g. The pellet was resuspended in an appropriate amount of plating medium, 20 μL of cell suspension was counted using a cell counter, and the cell density was diluted to 1×10^6 cells/mL. • (2) 20 μL of cell suspension was added to a polylysine-coated 384-well plate (2×10^4 cells/well). • (3) The cell plate was incubated in a 37° C./5% CO2 incubator for 16-20 h.
• (1) The cell plate was taken out from the incubator and centrifuged at 100×g to remove the medium. 20 μL of experimental buffer was added, and then 20 μL of 2× fluorescent probe solution was added. […] The cell plate and agonist positive compound plate were placed into the FLIPR instrument, the detection program was run, 10 μL of the diluted compound was transferred from the agonist compound plate to the cell plate, and the fluorescence signal was read. […] The cell plate and test compound plate were placed in the FLIPR instrument, the detection program was run, and 10 μL of the diluted compound was transferred from the test compound plate to the cell plate. […] The test compound plate was then taken out, and the agonist positive compound plate with 6×EC50 concentration was placed.
Inhibition rate (Inhibition %)=(negative control reading value−compound reading value)/(negative control reading value−positive control reading value)×100%

D2L receptor = molecular target: T3, D2L receptor (Homo sapiens, UniProt P14416); assay: D2L receptor cAMP agonist test; assay type: cell-based; conditions: HEK293 cell strain stably expressing D2L receptor; for EC50: cAMP, forskolin 0.5 μM; for D2L Max Act %: positive control dopamine 1 μM
T3 construct: expressed in transfected cells
T3 sequence (P14416 whole entry): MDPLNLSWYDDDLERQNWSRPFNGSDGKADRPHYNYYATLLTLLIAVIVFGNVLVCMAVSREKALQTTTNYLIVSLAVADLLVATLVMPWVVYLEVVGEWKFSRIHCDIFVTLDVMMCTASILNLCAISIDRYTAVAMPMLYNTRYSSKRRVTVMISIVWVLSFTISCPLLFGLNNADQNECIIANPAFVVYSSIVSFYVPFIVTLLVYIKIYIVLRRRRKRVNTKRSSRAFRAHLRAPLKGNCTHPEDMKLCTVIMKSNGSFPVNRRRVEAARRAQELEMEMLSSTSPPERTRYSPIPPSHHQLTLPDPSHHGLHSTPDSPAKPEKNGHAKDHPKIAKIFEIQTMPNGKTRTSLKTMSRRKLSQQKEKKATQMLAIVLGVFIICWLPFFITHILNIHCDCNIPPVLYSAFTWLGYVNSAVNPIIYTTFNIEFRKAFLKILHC
Experimental: as §1, with “• cAMP” for “cAMP”, “D2L” for “D2S”
• (1) The cryopreserved cells were thawed in a water bath at 37° C., the cell suspension was resuspended in HBSS buffer, and the mixed solution was centrifuged at 750 rpm for 5 min to remove the medium. The pellet was resuspended in an appropriate amount of experimental buffer, and an appropriate amount of cell suspension was diluted to 0.4×10^6 cells/mL. • (2) 5 μL of cell suspension was added to a ProxiPlate-384 well plate (2×10^3 cells/well), and the plate was centrifuged at 1000 rpm for 1 min. • (3) Test compounds were serially diluted in an experimental buffer, and 5 μL of the mixed solution was transferred to the reaction plate with Bravo.

[1] = Pharmacokinetic test in mice; assay type: in vivo; conditions: plasma, 5 mg/kg, oral intragastric, single dose 5 mg/kg
Experimental: Male ICR mice were administered orally intragastrically, the plasma concentrations of the compounds of the present invention were measured in the mice, the PK parameters were calculated, and the pharmacokinetic evaluation was performed on the compounds of the present invention.
• (1) Test samples: the compounds of the examples of the present invention, self-made. • (2) Test animals: ICR mice, SPF grade, male, Xuzhou Medical University. • (3) Main test instruments:
Drug preparation: according to the weight of the weighed drug, the preparation volume was calculated. 5% of DMSO was added firstly. After the drug was fully dissolved, 95% of 20% aqueous PB-cyclodextrin solution was then added, and the mixture was mixed well for later use.
Administration route: oral intragastric administration. Frequency and duration of administration: single administration.
ICR mice were stratified according to body weight and then randomly divided into groups of 9 mice each, and the mice were fasted overnight prior to the test. The mice were separately administered orally intragastrically. 50 μL of blood was collected from the fundus vein of the mouse at 0 h, 0.083 h, 0.25 h, 0.5 h, 1 h, 2 h, 4 h, 8 h, 12 h, and 24 h (3 time points for each mouse) to a sample tube containing heparin sodium as an anticoagulant, and the tube was placed in wet ice and centrifuged at 4000 r·min^−1 for 10 min. The plasma was separated, and cryopreserved in a refrigerator at −80° C. for testing.
The concentrations of plasma samples were measured by high performance liquid chromatography-tandem mass spectrometry (LC-MS/MS). The retention times of the compounds and internal standard, chromatogram acquisitions, and integrals of chromatograms were processed using the software Analyst (AB SCIEX), and the data statistics were processed using the software Watson LIMS (Thermo Fisher Scientific) or Analyst (AB SCIEX). The concentration of plasma was processed using a non-compartmental model of the pharmacokinetic software WinNonlin™ Version 6.3 (Pharsight, Mountain View, CA), and pharmacokinetic parameters were calculated by a linear log-trapezoidal method.

[2] = male, ICR, mouse, po, read-out: AUC(0-inf)
[3] = male, ICR, mouse, po, read-out: Cmax

Structure (SMILES) | EC50 (D2S receptor) [nM] | D2S Max Act % (D2S receptor) [%] | EC50 (5-HT1A receptor) [nM] | 5-HT1A Max Act % (5-HT1A receptor) [%] | IC50 (5-HT2A receptor) [nM] | 5-HT2A Max Inh % (5-HT2A receptor) [%] | EC50 (D2L receptor) [nM] | D2L Max Act % (D2L receptor) [%] | half-life ([1]; male, ICR, mouse, po) [h] | AUC(0-inf) [1, 2] [ng·h/mL] | Cmax [1, 3] [ng/mL] | AUC(0-inf) ([1]; male ICR mice) [ng·h/mL] | Cmax ([1]; male ICR mice) [ng/mL] | t1/2 ([1]; male ICR mice) [h]
O=C1Nc2cc(OCCCCN3CCN(c4cccc5sccc45)CC3)ccc2C2CC12 (single isomer, unassigned) [Example 42-P1] | 1 | 102.0 | 143 | 62.9 | 1950 | 100.5 | 0.99 | 29.6 | 4.1 | 8000 | 1180 | – | – | –
O=C1Nc2cc(OCCCCN3CCN(c4cccc5c4CCO5)CC3)ccc2C2CC12 (stereo not shown) [Example 45, 5-(4-(4-(2,3-Dihydrobenzofuran-4-yl)piperazin-1-yl)butoxy)-1,1a,3,7b-tetrahydro-2H-cyclopropa c quinolin-2-one] | 0.93 | 105.6 | 253 | 54.7 | 460 | 100.1 | 0.44 | 41.3 | 6.1 | 9650 | 1160 | – | – | –
O=C1Nc2cc(OCCCCN3CCN(c4cccc5c4CCO5)CC3)ccc2C2CC12 (single isomer, unassigned) [Example 45-P2] | 0.89 | 111.5 | 200 | 52.8 | 411 | 100.0 | 0.62 | 41.5 | – | – | – | 4083.7 | 660.0 | 3.0
O=C1Nc2cc(OCCCCN3CCN(c4cccc(Cl)c4Cl)CC3)ccc2[C@@H]2C[C@H]12 (single isomer, unassigned) [Example 1-P2] | 1.49 | 113.8 | 1210 | 45.2 | 737 | 100.3 | 0.61 | 33.1 | 10.8 | 7100 | 430 | – | – | –
O=C1Nc2cc(OCCCCN3CCN(c4cccc5c4CCO5)CC3)ccc2C2CC12 (single isomer, unassigned) [Example 45-P1] | 1.01 | 106.1 | 243 | 56.4 | 398 | 99.8 | 2.12 | 28.0 | 3.2 | 4770 | 774 | – | – | –
